Where a SMILES comes first, the peptide text is derived from it. Where no end group is shown, it is not given here. [ ]: non-standard residue; d: D form. The star is where a group is joined. Hexanoyl = CCCCCC(=O)*; Aib = CC(C)(N)C(=O)O

Series [1] addresses T1, human VPAC2 (Homo sapiens, UniProt P41587).
T1 construct: expressed in transfected cells
T1 sequence (P41587 24-438): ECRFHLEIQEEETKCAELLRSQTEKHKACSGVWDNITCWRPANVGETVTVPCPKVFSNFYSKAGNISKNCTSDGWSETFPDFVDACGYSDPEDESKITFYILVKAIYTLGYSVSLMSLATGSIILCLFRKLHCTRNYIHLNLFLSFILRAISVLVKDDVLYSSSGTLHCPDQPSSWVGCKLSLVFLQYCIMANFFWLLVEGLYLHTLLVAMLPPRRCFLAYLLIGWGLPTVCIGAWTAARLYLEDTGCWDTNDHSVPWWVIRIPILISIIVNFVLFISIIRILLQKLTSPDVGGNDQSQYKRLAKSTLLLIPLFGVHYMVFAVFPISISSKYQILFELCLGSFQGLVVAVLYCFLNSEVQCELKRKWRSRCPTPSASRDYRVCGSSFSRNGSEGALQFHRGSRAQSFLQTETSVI
The series is described as follows: Filter binding assay, membranes of stable VPAC2 cell line, 125I-labeled VIP tracer (Table 2). Particulars: read-out: Human VPAC2 Receptor Binding. The method in brief:
(§1)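 Scintillation counting of filter-retained radioligand gave the read-out. Compounds competed with the labelled tracer (about 40000 cpm) for 2.5 μg membranes during 1 hour of shaking in HEPES pH 7.4 buffer containing 0.5% BSA.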

The target of series [2] is T1, human VPAC2. The series is described as follows: Alpha screen cAMP in vitro potency, human VPAC2 receptor. Particulars: cAMP generation; single result from two analyses performed in a single run; read-out: Human VPAC2 Receptor: Alpha Screen EC50. It counts as cell-based. The method in brief: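 Dissociated cells, 50,000 per point in stimulation buffer, were incubated with stimuli and AlphaScreen acceptor beads for 60 min.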

The target of a further series is T2, human VPAC1 (Homo sapiens, UniProt P32241).
T2 sequence (P32241 31-457): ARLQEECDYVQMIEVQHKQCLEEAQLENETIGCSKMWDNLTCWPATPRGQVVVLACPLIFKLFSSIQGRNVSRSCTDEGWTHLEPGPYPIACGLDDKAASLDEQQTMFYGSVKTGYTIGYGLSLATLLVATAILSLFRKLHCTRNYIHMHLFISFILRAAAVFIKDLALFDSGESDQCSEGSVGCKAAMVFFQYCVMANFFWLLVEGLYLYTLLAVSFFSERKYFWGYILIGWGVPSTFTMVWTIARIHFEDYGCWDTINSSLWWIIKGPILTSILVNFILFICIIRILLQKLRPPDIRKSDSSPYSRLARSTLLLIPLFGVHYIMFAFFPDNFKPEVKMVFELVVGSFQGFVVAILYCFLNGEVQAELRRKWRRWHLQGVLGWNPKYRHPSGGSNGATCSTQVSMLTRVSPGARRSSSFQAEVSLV
The experiment in a line: Filter binding assay, membranes of cells transiently transfected with human VPAC1, 125I-labeled VIP tracer (Table 2). The following applies: read-out: Human VPAC1 Receptor Binding. Set-up: expressed in transfected cells. The method in brief:
as §1

A further series concerns the target T3, human PAC1 (Homo sapiens, UniProt P41586).
T3 sequence (P41586 21-468): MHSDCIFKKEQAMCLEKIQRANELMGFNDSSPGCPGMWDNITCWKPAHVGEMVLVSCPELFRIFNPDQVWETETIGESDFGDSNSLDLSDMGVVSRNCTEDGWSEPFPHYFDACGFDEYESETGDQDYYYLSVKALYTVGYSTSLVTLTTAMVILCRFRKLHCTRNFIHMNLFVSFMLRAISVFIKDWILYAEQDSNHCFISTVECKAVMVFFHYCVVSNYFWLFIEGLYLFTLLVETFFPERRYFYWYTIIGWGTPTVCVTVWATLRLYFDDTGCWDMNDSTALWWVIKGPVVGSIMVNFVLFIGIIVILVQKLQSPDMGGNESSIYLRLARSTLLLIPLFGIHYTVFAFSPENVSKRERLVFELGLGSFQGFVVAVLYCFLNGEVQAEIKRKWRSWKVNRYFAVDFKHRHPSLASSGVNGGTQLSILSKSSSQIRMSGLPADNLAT
The series is described as follows: Filter binding assay, membranes of cells transiently transfected with human PAC1, 125I-labeled PACAP-27 tracer (Table 2). Further details: expressed in transfected cells. The following applies: read-out: Human PAC1 Receptor Binding. In short, it runs like this:
as §1

Series [3] in a line: Rat serum stability studies (remaining active peptide by DiscoveRx cAMP on CHO-VPAC2 cells). It counts as in vitro ADME. In short, it runs like this: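 Rat serum, 18 h: +aprotinin aliquot at 4° C, no-aprotinin aliquot at 37° C. Then 30 min RT step, supernatant removed, 1 h shaking at 300 rpm. DiscoveRx cAMP kit on CHO-VPAC2; EC50 from cAMP data vs standards.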

As usually defined, the EC50 is the concentration at which the effect is half-maximal. Turning to “Hexanoyl-HSDAVFTDNYTRLRKQVAAKKYLQSFKNKRYGGPSSGAPPPS [Agonist P106]”, the IC50 at human VPAC2 [1] stood at 0.22 nM; at human VPAC1, 118 nM; on human PAC1, 1820 nM. Also, on human VPAC2 [2], the 50% effective concentration (EC50) came out at 0.16 nM. In addition, in series [3], the “Rat Serum Stability (estimated purity in % after 18 hours)” value was 0.11%.
For “Hexanoyl-HVDAVFTDNYTRLRKQVAAKKYLQSIKNKRYGGPSSGAPPPS [Agonist P99]”, the IC50 at human VPAC2 [1] turned out to be 1.72 nM; on human VPAC1 it was 394 nM; on human PAC1, 2060 nM. Further, the EC50 on human VPAC2 [2] turned out to be 0.14 nM. In addition, the “Rat Serum Stability (estimated purity in % after 18 hours)” value in series [3] is 0.61%.
As for “Hexanoyl-HGEGTFTDNYTRLRKQVAAKKYLQSIKNKRYGGPSSGAPPPS [Agonist P222]”, the results for the IC50 at human VPAC2 [1], on human VPAC1 and on human PAC1 were 1.05 nM, 177 nM and 466 nM, respectively. Further, on human VPAC2 [2], the concentration giving a half-maximal response (EC50) is 0.51 nM. Further, in series [3], the “Rat Serum Stability (estimated purity in % after 18 hours)” value is listed as 0.23%.
“Hexanoyl-HSDAVFTDNYTRLFKQVAAKKYLQSIKNKRYGGPSSGAPPPS [Agonist P175]”: the values for the IC50 at human VPAC2 [1], on human VPAC1 and at human PAC1 were 13.3 nM, over 3000 nM and over 25000 nM, respectively. In addition, on human VPAC2 [2], the EC50 came out at 0.68 nM. In addition, in series [3], the “Rat Serum Stability (estimated purity in % after 18 hours)” value was under 0.11%.
As for “Hexanoyl-HSDAVFTDNYTRLQ[Aib]QVAA[Aib]KYLQSIKNKRYGGPSSGAPPPS [Agonist P302]”, the IC50 at human VPAC2 [1] is 1.62 nM; at human VPAC1, over 3000 nM; at human PAC1 it was over 25000 nM. Moreover, the EC50 at human VPAC2 [2] was 0.45 nM. Moreover, the “Rat Serum Stability (estimated purity in % after 18 hours)” value in series [3] is reported as 21.43%.
Regarding “Hexanoyl-HSDAVFTDNYTRLRAQVAAKKYLQSIKNKRYGGPSSGAPPPS [Agonist P139]”, the results for the IC50 at human VPAC2 [1], on human VPAC1 and at human PAC1 were 0.34 nM, 235 nM and over 25000 nM, respectively. For the same molecule, the EC50 at human VPAC2 [2] is 0.2 nM. The “Rat Serum Stability (estimated purity in % after 18 hours)” value in series [3] is reported as 0.33%.
For “Hexanoyl-HSDAVFTDNYTRLRAQLAAQKYLQSIKNKRYGGPSSGAPPPS [Agonist P142]”, the results for the IC50 on human VPAC2 [1], at human VPAC1 and on human PAC1 were 0.58 nM, 364 nM and 1190 nM, respectively. The EC50 on human VPAC2 [2] was 0.15 nM. In addition, the “Rat Serum Stability (estimated purity in % after 18 hours)” value in series [3] is recorded as 0.51%.
Turning to “Hexanoyl-HSDAVFTDNYTRLRKQVAAKKYAQSIKNKRYGGPSSGAPPPS [Agonist P235]”, the IC50 at human VPAC2 [1] was 1.47 nM; at human VPAC1, 1340 nM; on human PAC1, 1110 nM. Moreover, the EC50 at human VPAC2 [2] came out at 0.82 nM. In series [3], the “Rat Serum Stability (estimated purity in % after 18 hours)” value is listed as 2.62%.
For “Hexanoyl-HSDAVFTDNYTRLLKQVAAKKYLQSIKNKRYGGPSSGAPPPS [Agonist P174]”, the IC50 at human VPAC2 [1] turned out to be 55.1 nM; at human VPAC1, 302 nM; at human PAC1, 621 nM. Further, on human VPAC2 [2], the EC50 amounted to 0.26 nM. Also, the “Rat Serum Stability (estimated purity in % after 18 hours)” value in series [3] is listed as 1.91%.
Consider “Hexanoyl-HSDAVFTDNYTRLRKQVAAIKYLQSIKNKRYGGPSSGAPPPS [Agonist P149]”, for which the values for the IC50 on human VPAC2 [1], on human VPAC1 and on human PAC1 were 0.61 nM, 212 nM and 773 nM, respectively. For the same molecule, the EC50 on human VPAC2 [2] came to 0.41 nM. The “Rat Serum Stability (estimated purity in % after 18 hours)” value in series [3] is reported as 0.29%.
“Hexanoyl-HSDAVFTDNYTRLRKQVAAKKYWQSIKNKRYGGPSSGAPPPS [Agonist P230]”: the IC50 on human VPAC2 [1] is 0.75 nM; at human VPAC1 it was 661 nM; at human PAC1, 463 nM. The concentration giving a half-maximal response (EC50) at human VPAC2 [2] was determined as 0.3 nM. Also, in series [3], the “Rat Serum Stability (estimated purity in % after 18 hours)” value was 0.53%.
For the molecule “Hexanoyl-HSDAVFTDNYTRLRKQVAAKAYLQSIKNKRYGGPSSGAPPPS [Agonist P184]”, the IC50 at human VPAC2 [1] is 0.23 nM; on human VPAC1, 324 nM; on human PAC1, 339 nM. The concentration for a half-maximal effect (EC50) on human VPAC2 [2] was 0.22 nM. Also, the “Rat Serum Stability (estimated purity in % after 18 hours)” value in series [3] is given as 0.29%.
The corresponding values for `CCCCCC(=O)N[C@@H](Cc1c[nH]cn1)C(=O)N[C@@H](CO)C(=O)N[C@@H](CC(=O)O)C(=O)N[C@@H](C)C(=O)N[C@H](C(=O)N[C@@H](Cc1ccccc1)C(=O)N[C@H](C(=O)N[C@@H](CC(=O)O)C(=O)N[C@@H](CC(N)=O)C(=O)N[C@@H](Cc1ccc(O)cc1)C(=O)N[C@H](C(=O)N[C@@H](CCCNC(=N)N)C(=O)N[C@@H](CC(C)C)C(=O)N[C@@H](CCCNC(=N)N)C(=O)NC(C)(C)C(=O)N[C@@H](CCC(N)=O)C(=O)N[C@H](C(=O)N[C@@H](C)C(=O)N[C@@H](C)C(=O)NC(C)(C)C(=O)N[C@@H](CCCCN)C(=O)N[C@@H](Cc1ccc(O)cc1)C(=O)N[C@@H](CC(C)C)C(=O)N[C@@H](CCC(N)=O)C(=O)N[C@@H](CO)C(=O)N[C@H](C(=O)N[C@@H](CCCCN)C(=O)N[C@@H](CCC(N)=O)C(=O)N[C@@H](CCCCN)C(=O)NCC(=O)NCC(=O)N1CCC[C@H]1C(=O)N[C@@H](CO)C(=O)N[C@@H](CO)C(=O)NCC(=O)N[C@@H](C)C(=O)N1CCC[C@H]1C(=O)N1CCC[C@H]1C(=O)N1CCC[C@H]1C(=O)N[C@@H](CO)C(=O)O)[C@@H](C)CC)C(C)C)[C@@H](C)O)[C@@H](C)O)C(C)C` [Agonist P294] (Hexanoyl-HSDAVFTDNYTRLR[Aib]QVAA[Aib]KYLQSIKQKGGPSSGAPPPS-OH; C-terminus assumed) are 0.45 nM, over 3000 nM, over 25000 nM, 0.24 nM and 24.25%.
“Hexanoyl-HSD[Aib]VFTDNYTRLRKQVAAKKYLQSIKNKRYGGPSSGAPPPS [Agonist P209]”: the IC50 amounted to 0.2 nM at human VPAC2 [1], 130 nM at human VPAC1 and 343 nM at human PAC1. Further, the EC50 on human VPAC2 [2] was 0.1 nM. Also, the “Rat Serum Stability (estimated purity in % after 18 hours)” value in series [3] is given as 0.13%.
Turning to “Hexanoyl-HSDAVFTDNYTRLRK(Ac)QVAAK(Ac)KYLQSIKNKRYGGPSSGAPPPS [Agonist P193]”, the IC50 was 0.37 nM at human VPAC2 [1], 250 nM at human VPAC1 and 542 nM at human PAC1. Moreover, the EC50 on human VPAC2 [2] was found to be 0.18 nM. Besides, in series [3], the “Rat Serum Stability (estimated purity in % after 18 hours)” value was 0.25%.
